Columns and labels:
[1] = test system: human neutrophils; experiment: Uptake of nanoparticles by human neutrophils in vitro (flow cytometry); format: cell-based; conditions: 30 ug/ml, 2 h
Description: FIG. 15 show novel data of uptake of DOX-hdy-BSA NPs by human neutrophils. Human neutrophils were incubated with DOX-hyd-BSA NPs (the concentration at 30 ug/ml) for 2 h, and then the cells were washed, and they were analyzed by flowcytometry.
It is also to be noted that the methods herein also pertain to making human albumin nanoparticles similar to BSA NPs. […] Human neutrophils were incubated with DOX-hyd-BSA NPs (the concentration at 30 ug/ml) for 2 h, and then the cells were washed and analyzed by flowcytometry.

[2] = test system: differentiated HL60 cells; experiment: Uptake of DOX-hyd-BSA NPs by differentiated HL60 cells; format: cell-based, human; conditions: 10^6 cells/mL, 2 h at different DOX concentrations; time course at 30 μg/mL DOX
Description: FIG. 5C and FIG. 5D show resultant uptake data of the present application, wherein DOX-hyd-BSA NPs by differentiated HL60 cells were evaluated in vitro.

[3] = test system: LPS-challenged mice; experiment: Acute lung inflammation mouse model (i.t. LPS), BALF neutrophils and cytokines; format: in vivo; conditions: vs free DOX and DOX-ab-BSA NPs
Description: Mice were anesthetized, and placed in a supine position head up on a board tilted at 15°. Afterwards, 10 mg/kg of LPS in HBSS was intratracheally (i.t.) administrated to mice with a FMJ-250 High Pressure Syringe (Penn-Century, Wyndmoor, Pa.). Mice were held upright for 2 min after administration.
Mice were challenged with i.t. injection of LPS (10 mg/kg). […] At 20 h post-drug administration, the mice were anesthetized with i.v. injection of a mixture of ketamine and xylazine. The BALF was collected by inserting a needle into the upper trachea. 0.9 mL HBSS was infused into the lungs and carefully withdrawn to obtain BALF. This process was repeated three times. BALF was collected and centrifuged at 350 g for 10 min at 4° C. The supernatant was collected for ELISA analysis. Afterwards, the cells were re-suspended in 0.5 ml of HBSS. The total cell number was determined with a hemocytometer.
Flow cytometry was utilized to quantify neutrophils in BALF. In detail, neutrophils from BALF were washed with 1 mL of 5% BSA in HBSS and centrifuged at 350 g for 10 min at 4° C. for three times, which was finally re-suspended in 400 μL of 5% BSA in HBSS. 3 μL of Alexa Fluor-647-labeled anti-mouse LY-6G antibody was added and incubated for 20 min in the dark, followed by washing with 1 mL of 0.1% BSA in HBSS under centrifugation for three times. Samples were then re-suspended in 400 μL 0.1% BSA in HBSS and filtered by a 100 μm filter, and analyzed by flow cytometer (Accuri C6 flow cytometer, BD Biosciences, San Jose, Calif.).
BALF was collected and centrifuged at 350 g for 10 min as described above. Supernatants from BALF were harvested for ELISA analysis. Concentrations of TNF-α, IL-6 and IL-1β in supernatants were determined with commercial ELISA kits according to the manufacturer's instructions (Biolegend, San Diego, Calif.). The triplicate experiment was conducted.

[4] = test system: heart, liver, spleen, lung and kidney; experiment: Toxicity by histological analysis (H&E staining of major organs); conditions: 0.2 mg/kg DOX
Description: After different treatments (healthy, PBS, 4 mg/kg of free DOX, 0.2 mg/kg of free DOX, DOX-hyd-BSA NPs and DOX-ab-BSA NPs, equal to 0.2 mg/kg of DOX for NPs), mice were sacrificed by carbon dioxide asphyxiation. […] The samples were imaged by a microscope (ZEISS, Observer. Z1, USA).

[5] = test system: LPS-challenged mice; experiment: Second LPS hit (i.t.) in mice that survived sepsis after NP treatment
Description: The mice were challenged with LPS (i.p., 50 mg/kg) or PBS (control). 4 h later, the LPS-challenged mice were i.v. treated with DOX-hyd-BSA NPs at 0.2 mg/kg of DOX. The control mice were not treated with LPS and NPs. 72 h later, all survival and control (healthy) mice were challenged with LPS (i.t., 10 mg/kg).
The combinatory experiments were designed in which a mouse was i.p. challenged with LPS to cause sepsis, and then a mouse was treated with DOX-loaded NPs 4 h after the LPS challenge. At 72 h after the LPS challenge, the survival mouse was i.t. administered to examine whether neutrophils can transmigrate and respond to the second hit of LPS (see FIG. 10M of experimental protocol diagram).

[6] = pH-triggered DOX release, UV-Vis of supernatants after 2 h incubation; format: physicochemical
Description: To confirm the pH-triggered drug release property, BSA NPs, DOX-ab-BSA NPs and DOX-hyd-BSA NPs were incubated in PBS at pH 7.4, 6.5 and 5.0 for 2 h, respectively. After centrifugation, the supernatants were collected to determine DOX concentrations using a UV-Vis spectrometer.

[7] = test system: LPS-challenged mice; experiment: Therapeutic efficacy in sepsis mouse model (neutrophils, cytokines, MPO in blood, BALF, organs); format: in vivo
Description: Adult CD-1 mice were i.p. administrated with LPS (50 mg/kg). 4 hours later, the mice were grouped randomly (10 mice per group) and i.v. injected with PBS, free DOX and DOX-hyd-BSA NPs (equal to 0.2 mg kg^−1 of free DOX), respectively. The healthy mice were used as […]. At predetermined time points (16 h and 72 h after LPS challenge), mouse BALF, blood and major organs were collected. Cell number and inflammatory factors (TNF-α, IL-6 and IL-1β) in BALF were determined by hemocytometer and ELISA, respectively as aforementioned. Blood was collected as described above. The plasma was harvested for ELISA assay after the blood was centrifuged at 1500 g for 20 min. Cell number was counted as above. The organs were homogenized with PBS (100 mg/mL) to obtain the pipettable homogenate for myeloperoxidase (MPO) activity and ELISA assay.

[8] = test system: differentiated HL-60 cells; experiment: Apoptosis analysis, Annexin V-FITC / 7AAD staining (flow cytometry, CLSM); format: cell-based, human
Description: To investigate the apoptosis of neutrophils induced by DOX, Annexin V-FITC and 7AAD were used to double stain differentiated HL-60 cells. […] The cells were re-suspended in a binding buffer for staining of Annexin V-FITC and 7AAD (emission at 650 nm) according to the manufacturer's protocol (Invitrogen). Stained cells were analyzed using a flow cytometer and imaged by a Nikon A1R^+ confocal laser scanning microscope.

[9] = 0.2 mg/kg (DOX) i.v. 4 h after i.t. LPS
[10] = first 16 h after LPS challenge, vs PBS

## DOX-hyd-BSA NPs
[1]
  uptake by human neutrophils: can be efficiently taken up
[2]
  DOX uptake by cells: taken up efficiently
[3]; 0.2 mg/kg (DOX) i.v. 4 h after i.t. LPS 10 mg/kg
  neutrophils in BALF: surprisingly and dramatically shown to decrease compared to controls
[3]; [9]
  IL-1β in BALF: decreased
  IL-6 in BALF: decreased
  TNF-α in BALF: decreased
[4]
  tissue or cellular damage in H&E sections of heart, liver, spleen, lung, kidney: did not show any noticeable signs of tissue or cellular damage
[5]; 0.2 mg (DOX)/kg dose
  body weight of mice that survived sepsis: returned to their initial weight
[5]; i.t. LPS 10 mg/kg at 72 h, BALF at 84 h, vs healthy mice
  response of neutrophils to second LPS challenge (BALF neutrophils, cytokines): can immediately respond to the challenge of LPS like what the healthy mice did
[6]; pH 5.0 and 6.5, 2 h incubation in PBS
  DOX absorption at 480 nm in supernatant: Absorption of DOX molecules at 480 nm was observed
[6]; pH 7.4, 2 h incubation in PBS
  DOX in supernatant: did not observe DOX in the supernatant
[7]; 16 h and 72 h post-LPS challenge, vs PBS
  inflammation in other organs (MPO, TNF-α, IL-6, IL-1β): significantly decreased inflammation in other organs
[7]; 72 h after LPS challenge
  neutrophil number and cytokine contents: resumed to their levels as in healthy mice
[7]; [10]
  cytokines in blood and lung BALF: decreased accordingly
  neutrophils in blood and lung BALF: dramatically decreased
[7]; neutrophil counts compared with healthy mice
  neutrophil production in the bone marrow: did not impair neutrophil production in the bone marrow
[8]; 24 h, DOX 3 μg/mL
  apoptotic cells by flow cytometry: 89%
[8]; 24 h treatment
  Annexin V-FITC / 7AAD staining by confocal microscopy: contained staining of Annexin-V-FITC, and less staining of 7AAD

— patent US20220133761A1, “NEUTROPHIL APOPTOSIS INDUCED BY NANOPARTICLES FOR TREATING INFLAMMATORY DISEASES” (WASHINGTON STATE UNIVERSITY, priority 2020, published 2022)
